Test results published in patent US10875876B2, “Cyclized sulfamoylarylamide derivatives and the use thereof as medicaments for the treatment of hepatitis B” (priority 2015, dated 2020).
Like-named read-outs stand apart in the source and are kept apart here.

Key:
HBV = test: anti HBV activity, HepG2.117 cell line, intracellular HBV DNA by realtime PCR; type: cell-based; details: Hepatitis B virus, HepG2.117, 72 h
In short: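 HepG2.117 cells, a Tet-off line that replicates HBV without doxycycline, were induced and then treated in duplicate with serially diluted compound. After 3 days, intracellular HBV DNA was quantified by real-time PCR with an HBV-specific primer set and probe.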

[1] = Cytotoxicity in HepG2 cells, Resazurin assay; details: human, HepG2 cells, TOX-HepG2-4 d CC50 (μM), HepG2 cells incubated for 4 days, viability by Resazurin assay
[2] = HepG2.117 cell line (Tet-off), 3 days of treatment, intracellular HBV DNA quantified by realtime PCR, read-out: HBV-AVE-HepG2.117 EC50

Row | Compound | EC50 (HBV; [2]) [µM] | CC50 at 4 days [1] [µM] | EC50 (HBV; read-out: HBV-AVE-HepG2.117 EC50 (μM)) [µM]
1 | Cn1cc2c(c1C(=O)Nc1ccc(F)c(F)c1)OC[C@@](C)(Cc1ccccc1)NS2(=O)=O [Compound 154, (3R)-3-benzyl-N-(3,4-difluorophenyl)-3,7-dimethyl-1,1-dioxo-2,4-dihydropyrrolo[3,4-b][1,4,5]oxathiazepine-6-carboxamide] | 0.008 | > 25 | 
2 | Cn1cc2c(c1C(=O)Nc1ccc(F)c(F)c1)OC[C@](C)(Cc1ccccc1)NS2(=O)=O [Compound 155, (3S)-3-benzyl-N-(3,4-difluorophenyl)-3,7-dimethyl-1,1-dioxo-2,4-dihydropyrrolo[3,4-b][1,4,5]oxathiazepine-6-carboxamide] | 0.025 | > 25 | 
3 | Cn1cc2c(c1C(=O)Nc1ccc(F)c(C#N)c1)OC[C@](C)(Cc1ccccc1)NS2(=O)=O [Compound 156, (3S)-3-benzyl-N-(3-cyano-4-fluoro-phenyl)-3,7-dimethyl-1,1-dioxo-2,4-dihydropyrrolo[3,4-b][1,4,5]oxathiazepine-6-carboxamide] | 0.009 | > 25 | 
4 | C[C@H](O)[C@H]1CCc2c(cn(C)c2C(=O)Nc2ccc(F)c(C#N)c2F)S(=O)(=O)N1 [Compound 159, (3R)—N-(3-cyano-2,4-difluoro-phenyl)-3-[(1S)-1-hydroxyethyl]-7-methyl-1,1-dioxo-2,3,4,5-tetrahydropyrrolo[3,4-f]thiazepine-6-carboxamide] | 0.014 | > 25 | 
5 | C[C@H]1CCc2c(cn(C)c2C(=O)Nc2ccnc(C(F)F)c2)S(=O)(=O)N1 [Compound 165, (3S)—N-[2-(difluoromethyl)-4-pyridyl]-3,7-dimethyl-1,1-dioxo-2,3,4,5-tetrahydropyrrolo[3,4-f]thiazepine-6-carboxamide] | 0.068 | > 25 | 
6 | C[C@H]1CCc2c(cn(C)c2C(=O)Nc2ccnc(Cl)c2)S(=O)(=O)N1 [Compound 166, (3S)—N-(2-chloro-4-pyridyl)-3,7-dimethyl-1,1-dioxo-2,3,4,5-tetrahydropyrrolo[3,4-f]thiazepine-6-carboxamide] | 0.056 | > 25 | 
7 | C[C@H](O)[C@H]1C=Cc2c(cn(C)c2C(=O)Nc2ccc(F)c(C#N)c2F)S(=O)(=O)N1 [Compound 178, (3R)—N-(3-cyano-2,4-difluoro-phenyl)-3-[(1S)-1-hydroxyethyl]-7-methyl-1,1-dioxo-2,3-dihydropyrrolo[3,4-f]thiazepine-6-carboxamide] | 0.016 | > 25 | 
8 | Cn1cc2c(c1C(=O)Nc1ccc(F)c(F)c1)OCC(C(O)c1ccncc1)NS2(=O)=O (stereo not shown) [Compound 183, N-(3,4-difluorophenyl)-3-[hydroxy(4-pyridyl)methyl]-7-methyl-1,1-dioxo-3,4-dihydro-2H-pyrrolo[3,4-b][1,4,5]oxathiazepine-6-carboxamide] | 0.002 | > 25 | 
9 | Cn1cc2c(c1C(=O)Nc1ccc(F)c(C(F)F)c1)CC[C@H](CO)NS2(=O)=O [Compound 184, (3R)—N-[3-(difluoromethyl)-4-fluoro-phenyl]-3-(hydroxymethyl)-7-methyl-1,1-dioxo-2,3,4,5-tetrahydropyrrolo[3,4-f]thiazepine-6-carboxamide] | 0.02 | > 25 | 
10 | Cn1cc2c(c1C(=O)Nc1ccc(F)c(C#N)c1F)CCC(C(C)(C)O)NS2(=O)=O (stereo not shown) [Compound 185, N-(3-cyano-2,4-difluoro-phenyl)-3-(1-hydroxy-1-methyl-ethyl)-7-methyl-1,1-dioxo-2,3,4,5-tetrahydropyrrolo[3,4-f]thiazepine-6-carboxamide] | 0.041 | > 25 | 
11 | C[C@H](O)[C@H]1C=Cc2c(cn(C)c2C(=O)Nc2ccc(F)c(C(F)F)c2F)S(=O)(=O)N1 [Compound 186, (3R)—N-[3-(difluoromethyl)-2,4-difluoro-phenyl]-3-[(1S)-1-hydroxyethyl]-7-methyl-1,1-dioxo-2,3-dihydropyrrolo[3,4-f]thiazepine-6-carboxamide] | 0.011 | > 25 | 
12 | Cn1cc2c(c1C(=O)Nc1ccc(F)c(C#N)c1)C=CC(C(F)F)NS2(=O)=O (stereo not shown) [Compound 189, N-(3-cyano-4-fluoro-phenyl)-3-(difluoromethyl)-7-methyl-1,1-dioxo-2,3-dihydropyrrolo[3,4-f]thiazepine-6-carboxamide] | 0.11 | > 25 | 
13 | Cc1cc(NC(=O)c2c3c(cn2C)S(=O)(=O)N[C@@H](C(C)(C)O)CO3)ccc1F [Compound 195, (3R)—N-(4-fluoro-3-methyl-phenyl)-3-(1-hydroxy-1-methyl-ethyl)-7-methyl-1,1-dioxo-3,4-dihydro-2H-pyrrolo[3,4-b][1,4,5]oxathiazepine-6-carboxamide] | 0.007 | > 25 | 
14 | Cn1cc2c(c1C(=O)Nc1ccc(F)c(F)c1)OC[C@@H](C1(O)CC1)NS2(=O)=O [Compound 196, (3S)—N-(3,4-difluorophenyl)-3-(1-hydroxycyclopropyl)-7-methyl-1,1-dioxo-3,4-dihydro-2H-pyrrolo[3,4-b][1,4,5]oxathiazepine-6-carboxamide] | 0.065 | > 25 | 
15 | Cn1cc2c(c1C(=O)Nc1ccc(F)c(F)c1)OCC(C)(Cc1ccc(Cl)nc1)NS2(=O)=O (stereo not shown) [Compound 197, 3-[(6-chloro-3-pyridyl)methyl]-N-(3,4-difluorophenyl)-3,7-dimethyl-1,1-dioxo-2,4-dihydropyrrolo[3,4-b][1,4,5]oxathiazepine-6-carboxamide] | 0.011 | > 25 | 
16 | Cn1cc2c(c1C(=O)Nc1ccc(F)c(Cl)c1)OCC(C)(Cc1ccc(Cl)nc1)NS2(=O)=O (stereo not shown) [Compound 198, N-(3-chloro-4-fluoro-phenyl)-3-[(6-chloro-3-pyridyl)methyl]-3,7-dimethyl-1,1-dioxo-2,4-dihydropyrrolo[3,4-b][1,4,5]oxathiazepine-6-carboxamide] | 0.011 | > 25 | 
17 | Cc1cc(NC(=O)c2c3c(cn2C)S(=O)(=O)N[C@@H]([C@H](C)O)CO3)ccc1F [Compound 200, (3R)—N-(4-fluoro-3-methyl-phenyl)-3-[(1S)-1-hydroxyethyl]-7-methyl-1,1-dioxo-3,4-dihydro-2H-pyrrolo[3,4-b][1,4,5]oxathiazepine-6-carboxamide] | 0.084 | > 25 | 
18 | Cn1cc2c(c1C(=O)Nc1ccc(F)c(F)c1)CCC(CO)(CO)NS2(=O)=O [Compound 201, N-(3,4-difluorophenyl)-3,3-bis(hydroxymethyl)-7-methyl-1,1-dioxo-4,5-dihydro-2H-pyrrolo[3,4-f]thiazepine-6-carboxamide] | 0.11 | > 25 | 
19 | COCC1(CO)CCc2c(cn(C)c2C(=O)Nc2ccc(F)c(F)c2)S(=O)(=O)N1 (stereo not shown) [Compound 202, N-(3,4-difluorophenyl)-3-(hydroxymethyl)-3-(methoxymethyl)-7-methyl-1,1-dioxo-4,5-dihydro-2H-pyrrolo[3,4-f]thiazepine-6-carboxamide] | 0.025 | > 25 | 
20 | CC#CCC1COc2c(cn(C)c2C(=O)Nc2ccc(F)c(F)c2)S(=O)(=O)N1 (stereo not shown) [Compound 205, 3-but-2-ynyl-N-(3,4-difluorophenyl)-7-methyl-1,1-dioxo-3,4-dihydro-2H-pyrrolo[3,4-b][1,4,5]oxathiazepine-6-carboxamide] |  | > 25 | 0.05
